Data published in US20090176759A1, “LEUKEMIC STEM CELL ABLATION” (ChemGenex Pharmaceuticals, Inc., priority 2007, published 2009).

Key:
MCL-1 = assay: Western Blot analysis of MCL-1 expression in K562 cells; assay type: cell-based; conditions: K562 (myeloid) cells
Method: In FIG. 1A the number of viable cells at the indicated drug concentrations was determined by trypan blue. In FIG. 1B the expression of ABL and MCL-1 in K562 (myeloid) cells is inhibited by HHT. In FIG. 1C the expression of ABL in lymphoid cells with BCR-ABL or the BCR-ABL T315I mutation is inhibited by HHT.
(§1) Antibodies for Western Blot analysis against c-ABL, Mcl-1 and β-actin were purchased from Santa Cruz Biothechology (Santa Cruz, Calif.). Protein lysates were prepared by lysing cells in RIPA buffer and immunoprecipitation. The retroviral vector MSCV-IRES-eGFP carrying the BCR-ABL cDNA was used to make virus stock for bone marrow transduction/transplantation. Four- to 10-week-old wild-type BABL/c or C57BL/6 (The Jackson Laboratory) and homozygous SRC triple gene knockout (Lyn−/−Hck−/−Fgr−/−) mice were used for leukemogenesis experiments. HHT (ChemGenex Pharmaceuticals, Inc, CA) was dissolved in accompanying diluent to a stock concentration of 1 mg/ml. Further dilutions were made to working concentrations using media or water.

IM-resistant T315I+CML = assay: Multicenter open-label phase 2/3 study of subcutaneous omacetaxine, efficacy; assay type: in vivo, human
Excerpt: As used herein, a cytological response to treatment with cephalotaxine and/or TKI is a response that occurs in the bone marrow rather than just in the peripheral blood. There are at least three cytological responses: (1) a cytogenetic response (CR); (2) a major cytogenetic response (MCR); and a complete cytogenetic response (CCR). Determination of such responses is based on the measurement of the number of peripheral blood and/or bone marrow cells having a marker that is associated with a particular leukemia. Such markers include cell surface antigens, aberrant proteins, and genetic modifications. A cytogenetic response occurs if the number or percentage of cells with such a marker decreases during treatment. A major cytogenetic response occurs if the number or percentage of such cells falls below 35%. A complete cytogenetic response occurs when no cells containing the marker are detected. For example, CML is characterized by the Ph+ chromosome. A cytogenetic response has occurred if the number of Ph+ chromosomes decreases at all during treatment. If the Ph+ percentage drops to 35% or less, it is considered a major cytogenetic response; 0% Ph+ is a complete cytogenetic response.
As used herein, a hematological response occurs when there is a change in the white blood cell count of a patient following treatment with cephalotaxine and/or TKI. The change in white blood cell count can be in the peripheral blood and the bone marrow although the change may be observed only in the peripheral blood. The response can be a partial reduction in white cell count or complete reduction to normal values (e.g. 10,000-12,000 cells […].)
This example summarizes human clinical trials using HHT to treat patients with IM-resistant T315I+CML.
A multicenter open-label phase 2/3 study evaluating safety and efficacy of omacetaxine administered subcutaneously (SC) in patients with IM-resistant T315I+CML in all phases of the disease is being conducted.
Induction phase—1.25 mg/m2 twice daily SC for 14 consecutive days every 28 days until complete hematologic response (CHR) or hematologic improvement has been achieved.
Maintenance therapy—1.25 mg/m2 twice daily SC for 7 days every 28 days for up to 24 months.
Doses were adjusted to maintain adequate WBC and platelet control by increasing or decreasing the number of days of administration of omacetaxine.

[1] = test system: BCR-ABL-T315I-induced CML; assay: Mice with BCR-ABL-T315I-induced CML treated with HHT; assay type: in vivo
Method: In FIG. 3A, the number of circulating leukemic cells (calculated as percentage of Gr-1+GFP+ cells×white blood cell count) in mice with BCR-ABL-T315I-induced CML treated with placebo or HHT was determined on day 14 after transplantation.
as §1
The number of circulating leukemic cells (calculated as percentage of Gr-1+GFP+ cells×white blood cell count) in mice with BCR-ABL-T315I-induced CML treated with placebo or HHT (0.5 mg/kg) was determined on day 14 after transplantation.

BCR-ABL-induced B-ALL = assay: Mice with BCR-ABL-induced B-ALL treated with HHT; assay type: in vivo
Method: FIG. 4A is a FACS analysis evaluation of the leukemic process in HHT or placebo treated B-ALL mice after 4 days or 10 days.
as §1

[2] = test system: leukemia stem cells of mice with BCR-ABL-WT-induced CML; assay: Leukemic cells and leukemia stem cells in bone marrow of treated CML mice, FACS; assay type: in vivo; conditions: HHT 0.5 mg/kg once every day, imatinib 100 mg/kg twice a day, by gavage, 4 days beginning at day 8 after transplantation
Method: FIG. 5A is a FACS analysis of bone marrow cells isolated from mice with BCR-ABL-WT-induced CML were cultured in vitro (5×10^6 cells/6 cm tissue culture plate) in the presence of different doses of HHT for 6 days (changing the stem cell medium containing placebo or HHT at day 3) followed by FACS analysis of leukemia stem cells (GFP+Lin− c-Kit+Sca-1+). FIG. 5B depicts bar graphs for the leukemic cells and leukemic stem cells. […] Bone marrow cells were isolated from the treated CML mice, and leukemia stem cells were analyzed by FACS. The numbers of cells represent total leukemia stem cells in average from femur and tibia of each treated CML mouse.
Bone marrow cells were isolated from the treated CML mice, and leukemia stem cells were analyzed by FACS. The numbers of cells represent total leukemia stem cells in average from femur and tibia of each treated CML mouse.

[3] = Accelerated Phase, N = 5, median (range)
[4] = Chronic Phase, N = 20, median (range)

In the case of COC(=O)C[C@](O)(CCCC(C)(C)O)C(=O)O[C@@H]1C(OC)=C[C@]23CCCN2CCc2cc4c(cc2[C@H]13)OCO4 [HHT, Homoharringtonine], the “expression of MCL-1” value (MCL-1) is reported as “inhibited”, the “Median Duration of Response, Cytogenetic Response Minimal” value (IM-resistant T315I+CML; Accelerated Phase, N = 5) is reported as 2.3 Months and the “Median Duration of Response, Hematologic Response HI” value (IM-resistant T315I+CML; Accelerated Phase, N = 5) is reported as 2.8 Months. For the same compound, the “Median Duration of Response, Hematologic Response CHR” value (IM-resistant T315I+CML; [3]) was 9.6 (8.3-10.9+) Months, the “Median Duration of Response, Hematologic Response RCP” value (IM-resistant T315I+CML; [3]) was 2.0 (2.0-2.0+) Months and the “Complete Hematologic Response (CHR)” value (IM-resistant T315I+CML; Accelerated Phase, N = 11) was 2 (18) Number (%). For the same compound, the “Cytogenetic Response, Minimal” value (IM-resistant T315I+CML; Accelerated Phase, N = 11) was 1 (9) Number (%), the “Cytogenetic Response, Overall” value (IM-resistant T315I+CML; Accelerated Phase, N = 11) was 1 (9) Number (%) and the “Hematologic Improvement (HI)” value (IM-resistant T315I+CML; Accelerated Phase, N = 11) was 1 (9) Number (%). For the same compound, the “Hematologic Response, Overall” value (IM-resistant T315I+CML; Accelerated Phase, N = 11) was 5 (45) Number (%), the “Return to Chronic Phase (RCP)” value (IM-resistant T315I+CML; Accelerated Phase, N = 11) was 2 (18) Number (%) and the “Median Duration of Response, Hematologic Response RCP” value (IM-resistant T315I+CML; Blast Phase, N = 1) was 3.4 Months. The “Hematologic Response, Overall” value (IM-resistant T315I+CML; Blast Phase, N = 8) was 1 (13) Number (%), the “Return to Chronic Phase (RCP)” value (IM-resistant T315I+CML; Blast Phase, N = 8) was 1 (13) Number (%) and the “Median Duration of Response, Cytogenetic Response Partial” value (IM-resistant T315I+CML; Chronic Phase, N = 20) was 4.2 Months. The “Median Duration of Response, Cytogenetic Response Complete” value (IM-resistant T315I+CML; [4]) was 4.8 (0.3-9.7+) Months, the “Median Duration of Response, Cytogenetic Response Minimal” value (IM-resistant T315I+CML; [4]) was 4.0 (3.9-20.8+) Months and the “Median Duration of Response, Hematologic Response CHR” value (IM-resistant T315I+CML; [4]) was 11.5 (3.5-25.4+) Months. The “Complete Hematologic Response (CHR)” value (IM-resistant T315I+CML; Chronic Phase, N = 25) was 20 (80) Number (%), the “Cytogenetic Response, Complete” value (IM-resistant T315I+CML; Chronic Phase, N = 25) was 4 (16) Number (%) and the “Cytogenetic Response, Minimal” value (IM-resistant T315I+CML; Chronic Phase, N = 25) was 2 (8) Number (%). For the same compound, the “Cytogenetic Response, Overall” value (IM-resistant T315I+CML; Chronic Phase, N = 25) was 7 (28) Number (%), the “Cytogenetic Response, Partial” value (IM-resistant T315I+CML; Chronic Phase, N = 25) was 1 (4) Number (%) and the “Hematologic Response, Overall” value (IM-resistant T315I+CML; Chronic Phase, N = 25) was 20 (80) Number (%). The “Molecular Response, Major” value (IM-resistant T315I+CML; Chronic Phase, N = 25) was 2 (8) Number (%), the “Cytogenetic Response, Major*” value (IM-resistant T315I+CML; Chronic Phase, N = 25, one complete and one partial cytogenetic response are unconfirmed) was 5 (20) Number (%) and the progression free survival (IM-resistant T315I+CML; accelerated phase (AP), after one year) was 25%. It also gave a progression free survival (IM-resistant T315I+CML; blast phase (BP), after 6 months) of 44%, a progression free survival (IM-resistant T315I+CML; chronic phase (CP), after 1 year) of 80% and a progression free survival (IM-resistant T315I+CML; chronic phase (CP), after 2 years) of 70%. The “duration of complete hematologic and cytogenetic responses” value (IM-resistant T315I+CML; in vivo) was “up to one year”, the survival ([1]; BCR-ABL-T315I CML mice, HHT vs placebo) was “prolonged survival” and the “number of circulating leukemic cells (percentage of Gr-1+GFP+ cells×white blood cell count)” value ([1]; HHT 0.5 mg/kg, day 14 after transplantation, vs placebo) was “significantly reduced”. The “leukemic cells (FACS)” value (BCR-ABL-induced B-ALL; B-ALL mice after 4 days or 10 days, HHT vs placebo) was “significant reduction in leukemic cells as a function of treatment time and HHT dosage”, the survival (BCR-ABL-induced B-ALL; B-ALL mice, HHT 1 mg/kg) was “prolonged survival” and the “number of leukemic cells in bone marrow” value [2] was “reduces”. The “number of leukemic stem cells in bone marrow (femur and tibia)” value [2] was “reduces”.
